Measurements: patent US12061202B2, “Compositions and methods for bioluminescent detection using multifunctional probes” (Promega Corporation, priority 2019, dated 2024)

Tests used:
Raji target cells = experiment: Bispecific T-cell engager (BiTE) target cell lysis, labeled Raji target cells with TALL-104 effector cells; assay type: cell-based; settings: Raji (1.67 μM Labeling probe); TALL-104 effector 2.5:1; 6 hours at 37° C.
Protocol: BiTEs are a class of artificial bispecific monoclonal antibodies that are investigated for the use as anti-cancer drugs as they are used to direct the T cells' cytotoxic activity to target cells (e.g., cancer cells). As shown, Raji target cells (1.67 μM Labeling probe) and TALL-104 effector cells were co-cultured at 2.5:1 ratio (12,500 effector to 5,000 target) in a 96-well assay plate. Bincyto was titrated at indicated concentrations and assay plate was incubated for 6 hours at 37° C. prior to Nano-Glo® Luciferase Assay Substrate addition. Curves were generated following assay background subtraction as described in above. […] S/B=BiTE/no BiTE. % antibody dependent target cell lysis=100×(RLU [target+ effector+antibody]−RLU [target+ effector])/(RLU [target+ effector+digitonin]−RLU [target+ effector]).

Daudi cells = experiment: Antibody dependent cellular cytotoxicity (ADCC), labeled Daudi cells co-cultured with PBMC; assay type: cell-based; settings: Daudi labeled with 1 μM Labeling Probe; PBMC E:T 20:1; 5 hours at 37° C.
Protocol: As shown in FIGS. 3A-3C, experiments were conducted to test antibody dependent cellular cytotoxicity (ADCC) in Daudi (FIGS. 3A-3B) and SKBR3 (FIG. 3C) cells labeled with the bifunctional probes of the present disclosure. Daudi and SKBR3 cells were labeled with 1 μM and 10 μM Labeling Probe respectively and co-cultured with peripheral blood mononuclear cells (PBMC; Cellular Technologies Limited) at an E:T ratio of 20:1 (100,000 effector to 5,000 target) with indicated antibody titrations for 5 hours at 37° C. prior to Nano-Glo® Luciferase Assay Substrate addition. […] Curves in FIGS. 3B and 3C were generated following assay background subtraction (RLU [Target cells+Effector cells+Detection Components]−RLU [Media+Detection Components]) using a four parametric variable slope algorithm in Prism.

Bincyto: bispecific T-cell engager (BiTE) titrated on Raji target cells with TALL-104 effector cells
EC50 (Raji target cells): 5.38 µM

Rituximab: antibody titrated in ADCC assay on Daudi cells
EC50 (Daudi cells): 6.8 ng/mL
